The text below walks through data of PMC4133103 (DNA repair, 2014).

Read-outs that look alike come from different tables or passages of the source.

As usually defined, the Kd is the concentration at which binding is half-saturated.

Data set [1] relates to Salmonella typhimurium (TA98). Conditions: cited from earlier work.
For the next data set, the target named is T1, Dpo4•DNA binary complex (Saccharolobus solfataricus, UniProt Q97W02).
T1 sequence (Q97W02 1-352): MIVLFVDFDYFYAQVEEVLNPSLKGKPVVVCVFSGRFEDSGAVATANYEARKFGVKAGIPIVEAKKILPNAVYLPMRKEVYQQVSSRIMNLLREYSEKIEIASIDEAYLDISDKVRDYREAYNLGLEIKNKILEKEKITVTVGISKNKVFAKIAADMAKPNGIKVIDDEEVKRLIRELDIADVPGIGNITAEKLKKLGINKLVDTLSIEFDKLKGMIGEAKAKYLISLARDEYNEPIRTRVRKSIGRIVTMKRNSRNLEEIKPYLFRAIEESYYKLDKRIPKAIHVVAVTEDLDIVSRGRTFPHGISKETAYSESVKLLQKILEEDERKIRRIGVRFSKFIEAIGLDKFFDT
The data set is described as follows: Substrate specificity assay. The following applies: for Probability: efficiency/sum of efficiencies × 100; for Fidelity: incorrect/(correct+incorrect) efficiency; for kp / Kd: Dpo4 120 nM, 37 °C; for Kd: read-out: Kd,dNTP. It counts as biochemical, Sulfolobus solfataricus.

The test system of data set [2] is nucleotide excision repair-deficient human XPA cells. The following applies: cited from earlier work.
In another data set the target is T2, Dpo4 (DNA polymerase IV) (Sulfolobus solfataricus, UniProt Q97W02 1-352).
T2 sequence: T1 sequence (Q97W02 1-352)
The data set is described as follows: EMSA. On the technique in general: Mobility shift assays separate free from complexed probe on a gel.

The mark [3] stands for this setting: DNA substrate 18/26-mer-dG^C8-N-ABA.
The mark [4] stands for this setting: DNA substrate 18/26-mer-dG^C8-N-ABA vs control 18/26-mer.
[5] abbreviates: DNA substrate 19/26-mer-dG^C8-N-ABA.
Setting [6] is: DNA substrate 19/26-mer-dG^C8-N-ABA vs control 19/26-mer.
Setting [7] is: DNA substrate 20/26-mer-dG^C8-N-ABA (pause site).
[8] abbreviates: DNA substrate 20/26-mer-dG^C8-N-ABA vs control 20/26-mer.
Setting [9] is: DNA substrate 20/26-mer-dG^C8-N-ABA.
The mark [10] stands for this setting: DNA substrate 21/26-mer-dG^C8-N-ABA (pause site).
Where [11] appears, read: DNA substrate 21/26-mer-dG^C8-N-ABA (pause site) 30 nM.
Where [12] appears, read: DNA substrate 21/26-mer-dG^C8-N-ABA vs control 21/26-mer.
Setting [13] is: DNA substrate 21/26-mer-dG^C8-N-ABA.
[14] abbreviates: DNA substrate 22/26-mer-dG^C8-N-ABA.
Where [15] appears, read: DNA substrate 22/26-mer-dG^C8-N-ABA vs control 22/26-mer.
Setting [16] is: DNA substrate 21/26-mer-dG^C8-N-ABA (pause site, extension) 30 nM.
The mark [17] stands for this setting: DNA substrate 22/26-mer-dG^C8-N-ABA 30 nM.
Setting [18] is: DNA substrate 19/26-mer-dG^C8-N-ABA 30 nM.
Setting [19] is: DNA substrate 18/26-mer-dG^C8-N-ABA 30 nM.
[20] abbreviates: DNA substrate 20/26-mer-dG^C8-N-ABA (pause site) 30 nM.

For `O=C1c2ccccc2-c2ccc([N+](=O)[O-])c3cccc1c23` [3-NBA, 3-Nitrobenzanthrone], the mutagenicity result in data set [1] is given as “one of the most mutagenic compound ever tested”.
Turning to `Cc1cn([C@H]2C[C@H](O)[C@@H](COP(=O)(O)OP(=O)(O)OP(=O)(O)O)O2)c(=O)[nH]c1=O` [dTTP], the “(kp/Kd, dNTP)damaged” value at Dpo4•DNA binary complex (setting [3]) was 16 M⁻¹ s⁻¹; on Dpo4•DNA binary complex (setting [5]), 5.5 M⁻¹ s⁻¹; on Dpo4•DNA binary complex (setting [7]), 1.6 M⁻¹ s⁻¹; on Dpo4•DNA binary complex (setting [10]), 0.4 M⁻¹ s⁻¹; on Dpo4•DNA binary complex (setting [14]), 2.2 M⁻¹ s⁻¹. For the same molecule, the “Efficiency Ratio (kp/Kd, dNTP)control/(kp/Kd, dNTP)damaged” value (“Efficiency Ratio” below) at Dpo4•DNA binary complex (setting [4]) amounted to 5.4; on Dpo4•DNA binary complex (setting [6]), 1.6; at Dpo4•DNA binary complex (setting [8]) it was 52; at Dpo4•DNA binary complex (setting [12]), 4.5; at Dpo4•DNA binary complex (setting [15]), 5.0. The Probability on Dpo4•DNA binary complex (setting [3]) was determined as 0.02; at Dpo4•DNA binary complex (setting [5]), 0.05; at Dpo4•DNA binary complex (setting [9]), 0.32; on Dpo4•DNA binary complex (setting [13]), 1.57; at Dpo4•DNA binary complex (setting [14]) it was 0.07. The Fidelity at Dpo4•DNA binary complex (setting [5]) is listed as 5.7 × 10^−4; on Dpo4•DNA binary complex (setting [13]), 1.8 × 10^−2; at Dpo4•DNA binary complex (setting [14]), 6.9 × 10^−4. For the same molecule, on Dpo4•DNA binary complex (setting [11]), the kp result is recorded as “(1.7 ± 0.1) × 10^−4 s^−1”. Further, the dissociation constant Kd on Dpo4•DNA binary complex (setting [16]) turned out to be 420 ± 80 µM; at Dpo4•DNA binary complex (setting [17]) it was 770 ± 140 µM.
With `Nc1ncnc2c1ncn2[C@H]1C[C@H](O)[C@@H](COP(=O)(O)OP(=O)(O)OP(=O)(O)O)O1` [dATP], the “(kp/Kd, dNTP)damaged” value at Dpo4•DNA binary complex (setting [3]) came out at 9.1 M⁻¹ s⁻¹; on Dpo4•DNA binary complex (setting [5]) it was 6.7 M⁻¹ s⁻¹; on Dpo4•DNA binary complex (setting [7]), 3 M⁻¹ s⁻¹; at Dpo4•DNA binary complex (setting [10]), 1 M⁻¹ s⁻¹; at Dpo4•DNA binary complex (setting [14]), 11 M⁻¹ s⁻¹. Besides, the “Efficiency Ratio” value at Dpo4•DNA binary complex (setting [4]) came out at 0.85; at Dpo4•DNA binary complex (setting [6]) it was 2.1; on Dpo4•DNA binary complex (setting [8]) it was 6.3; at Dpo4•DNA binary complex (setting [12]), 2.4; on Dpo4•DNA binary complex (setting [15]) it was 0.38. The Probability on Dpo4•DNA binary complex (setting [3]) was 0.01; on Dpo4•DNA binary complex (setting [5]) it was 0.07; on Dpo4•DNA binary complex (setting [9]), 0.61; on Dpo4•DNA binary complex (setting [13]), 3.83; at Dpo4•DNA binary complex (setting [14]) it was 0.34. Also, the kp entry at Dpo4•DNA binary complex (setting [18]) was “(2.9 ± 0.2) × 10^−3 s^−1”; on Dpo4•DNA binary complex (setting [11]), “(4.5 ± 0.2) × 10^−4 s^−1”. For the same molecule, the Fidelity on Dpo4•DNA binary complex (setting [5]) was 7.0 × 10^−4; at Dpo4•DNA binary complex (setting [9]), 6.1 × 10^−4; on Dpo4•DNA binary complex (setting [13]), 4.3 × 10^−2; on Dpo4•DNA binary complex (setting [14]), 3.4 × 10^−4. The dissociation constant Kd at Dpo4•DNA binary complex (setting [19]) came to 2200 ± 600 µM; at Dpo4•DNA binary complex (setting [18]), 430 ± 60 µM; on Dpo4•DNA binary complex (setting [16]), 450 ± 50 µM; at Dpo4•DNA binary complex (setting [17]) it was 470 ± 70 µM.
As to `Nc1nc2c(ncn2[C@H]2C[C@H](O)[C@@H](COP(=O)(O)OP(=O)(O)OP(=O)(O)O)O2)c(=O)[nH]1` [dGTP], the “(kp/Kd, dNTP)damaged” value on Dpo4•DNA binary complex (setting [3]) came out at 18 M⁻¹ s⁻¹; on Dpo4•DNA binary complex (setting [5]), 9600 M⁻¹ s⁻¹; at Dpo4•DNA binary complex (setting [7]) it was 0.68 M⁻¹ s⁻¹; on Dpo4•DNA binary complex (setting [10]), 22 M⁻¹ s⁻¹; at Dpo4•DNA binary complex (setting [14]), 1.3 M⁻¹ s⁻¹. In addition, the “Efficiency Ratio” value was 1.6 at Dpo4•DNA binary complex (setting [4]); 2.6 on Dpo4•DNA binary complex (setting [6]); 66 on Dpo4•DNA binary complex (setting [8]); 170 at Dpo4•DNA binary complex (setting [12]); 6.5 at Dpo4•DNA binary complex (setting [15]). For the same molecule, the Probability at Dpo4•DNA binary complex (setting [3]) turned out to be 0.02; on Dpo4•DNA binary complex (setting [5]) it was 99.82; on Dpo4•DNA binary complex (setting [9]), 0.14; on Dpo4•DNA binary complex (setting [13]) it was 84.26; on Dpo4•DNA binary complex (setting [14]), 0.04. Further, the kp at Dpo4•DNA binary complex (setting [18]) was 0.48 ± 0.02 s⁻¹; on Dpo4•DNA binary complex (setting [20]) it was “(8.1 ± 0.1) × 10^−4 s^−1”; on Dpo4•DNA binary complex (setting [11]) it was “(8.9 ± 0.7) × 10^−4 s^−1”. The Fidelity at Dpo4•DNA binary complex (setting [9]) is listed as 1.4 × 10^−4; at Dpo4•DNA binary complex (setting [14]), 4.1 × 10^−4. Further, the equilibrium dissociation constant (Kd) was 350 ± 40 µM on Dpo4•DNA binary complex (setting [19]), 50 ± 9 µM on Dpo4•DNA binary complex (setting [18]), 400 ± 80 µM on Dpo4•DNA binary complex (setting [16]) and 1100 ± 200 µM at Dpo4•DNA binary complex (setting [17]).
Take `Nc1ccn([C@H]2C[C@H](O)[C@@H](COP(=O)(O)OP(=O)(O)OP(=O)(O)O)O2)c(=O)n1` [dCTP]: the “(kp/Kd, dNTP)damaged” value on Dpo4•DNA binary complex (setting [3]) is 88000 M⁻¹ s⁻¹; at Dpo4•DNA binary complex (setting [5]), 6.4 M⁻¹ s⁻¹; at Dpo4•DNA binary complex (setting [7]), 490 M⁻¹ s⁻¹; on Dpo4•DNA binary complex (setting [10]), 2.7 M⁻¹ s⁻¹. In addition, the kp on Dpo4•DNA binary complex (setting [19]) is 2.83 ± 0.08 s⁻¹; on Dpo4•DNA binary complex (setting [18]), “(1.4 ± 0.2) × 10^−3 s^−1”; at Dpo4•DNA binary complex (setting [20]) it was 0.25 ± 0.02 s⁻¹; at Dpo4•DNA binary complex (setting [11]), “(4.3 ± 0.1) × 10^−4 s^−1”; at Dpo4•DNA binary complex (setting [17]), 4.5 ± 0.7 s⁻¹. In addition, the “Efficiency Ratio” value is given as 1.25 on Dpo4•DNA binary complex (setting [4]); 22 on Dpo4•DNA binary complex (setting [6]); 120 at Dpo4•DNA binary complex (setting [8]); 12 on Dpo4•DNA binary complex (setting [12]); 11 on Dpo4•DNA binary complex (setting [15]). The Probability on Dpo4•DNA binary complex (setting [3]) came out at 99.95; on Dpo4•DNA binary complex (setting [5]) it was 0.06; at Dpo4•DNA binary complex (setting [9]), 98.93; on Dpo4•DNA binary complex (setting [13]), 10.34; at Dpo4•DNA binary complex (setting [14]) it was 99.55. The figures for the Fidelity on Dpo4•DNA binary complex (setting [5]) and on Dpo4•DNA binary complex (setting [13]) were 6.7 × 10^−4 and 1.1 × 10^−1, respectively. Also, the Kd amounted to 32 ± 5 µM at Dpo4•DNA binary complex (setting [19]), 220 ± 80 µM at Dpo4•DNA binary complex (setting [18]), 160 ± 20 µM at Dpo4•DNA binary complex (setting [16]) and 1400 ± 300 µM on Dpo4•DNA binary complex (setting [17]).
Consider `Nc1nc2c(nc(Nc3ccc4c5c(cccc35)C(=O)c3ccccc3-4)n2[C@H]2C[C@H](O)[C@@H](CO)O2)c(=O)[nH]1` [dG^C8-N-ABA, N-(2’-deoxyguanosin-8-yl)-3-aminobenzanthrone], for which the “replication block among the three major 3-NBA derived DNA adducts” value in data set [2] is recorded as “strongest replication block”. Further, the mutational frequency in data set [2] (primarily G-to-A transitions followed by G-to-T transversions) is 30.6%.

B1: 22/26-mer-dGC8-N-ABA (dsDNA)
DNA 1: AACGACGGCCAGTGAATTCGCG
DNA 2: CCCGCGCGAATTCACTGGCCGTCGTT
modifications: N-(2'-deoxyguanosin-8-yl)-3-aminobenzanthrone (dGC8-N-ABA) at G6 of strand 2 (from 5' end)
Take B1: in the data set with Dpo4 (DNA polymerase IV), the Kd came to 0.005 ± 0.0009 µM.

B2: 21/26-mer-dGC8-N-ABA (dsDNA)
DNA 1: AACGACGGCCAGTGAATTCGC
DNA 2: CCCGCGCGAATTCACTGGCCGTCGTT
modifications: N-(2'-deoxyguanosin-8-yl)-3-aminobenzanthrone (dGC8-N-ABA) at G6 of strand 2 (from 5' end)
As to B2, the Kd in the data set with Dpo4 (DNA polymerase IV) was determined as 0.029 ± 0.007 µM.
